Measurements taken from patent US8946439B2, “Amide compounds, compositions and uses thereof” (Evotec AG, priority 2008, dated 2015).
Like-named read-outs stand apart in the source and are kept apart here.

Tests used:
hP2X3 = biological target: T1, hP2X3 (Homo sapiens, UniProt P56373); test: Calcium uptake assay (P2X antagonist assay), P2X3 homomer; format: cell-based; conditions: read-out: IC50 hP2X3
T1 construct: expressed in transfected cells; host or cells: e.g. HEK293 or 1321N1
T1 sequence (P56373 1-397): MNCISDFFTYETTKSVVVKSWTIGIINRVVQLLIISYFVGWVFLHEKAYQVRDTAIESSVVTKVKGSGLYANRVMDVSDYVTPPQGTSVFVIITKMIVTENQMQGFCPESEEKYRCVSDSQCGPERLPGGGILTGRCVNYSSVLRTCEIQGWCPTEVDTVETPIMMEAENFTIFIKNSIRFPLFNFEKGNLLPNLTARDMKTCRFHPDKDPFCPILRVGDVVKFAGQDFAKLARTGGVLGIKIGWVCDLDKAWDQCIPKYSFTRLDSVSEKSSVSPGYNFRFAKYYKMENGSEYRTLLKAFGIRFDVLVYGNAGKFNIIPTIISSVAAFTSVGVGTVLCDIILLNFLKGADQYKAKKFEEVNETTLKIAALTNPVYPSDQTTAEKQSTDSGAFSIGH
Summary of the method: (§1)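 Stably or transiently transfected HEK293 or 1321N1 cells; the heteromer is made by adding P2X3 to a P2X2-stable line, with heteromer function isolated pharmacologically. The peak-minus-baseline FLIPR calcium signal gives % inhibition and a 4-parameter-logistic IC50.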

hP2X2/3H = biological target: T2, hP2X2/3H (Homo sapiens, UniProt P56373+Q9UBL9); test: Calcium uptake assay (P2X antagonist assay), P2X2/3 heteromer; format: cell-based; conditions: read-out: IC50 hP2X2/3H
T2 construct: expressed in transfected cells; host or cells: e.g. HEK293 or 1321N1
T2 sequence (Q9UBL9 1-471): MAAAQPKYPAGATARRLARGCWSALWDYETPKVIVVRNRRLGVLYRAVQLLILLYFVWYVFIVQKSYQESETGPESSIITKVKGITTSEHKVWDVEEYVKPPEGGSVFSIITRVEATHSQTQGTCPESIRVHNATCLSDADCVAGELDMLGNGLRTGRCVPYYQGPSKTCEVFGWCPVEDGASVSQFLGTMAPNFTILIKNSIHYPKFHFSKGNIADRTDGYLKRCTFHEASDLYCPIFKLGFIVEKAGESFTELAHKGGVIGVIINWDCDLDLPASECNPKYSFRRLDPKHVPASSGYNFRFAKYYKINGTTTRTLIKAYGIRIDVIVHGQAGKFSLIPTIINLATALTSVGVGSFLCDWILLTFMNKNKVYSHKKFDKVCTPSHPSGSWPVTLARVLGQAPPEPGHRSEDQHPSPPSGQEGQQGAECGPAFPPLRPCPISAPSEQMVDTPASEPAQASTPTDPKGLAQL
T2 sequence (P56373 1-397): T1 sequence (P56373 1-397)
Summary of the method: as §1

[1] = Ca influx (calcium uptake assay), hP2X3
[2] = Ca influx (calcium uptake assay), hP2X2/3H
[3] = Ca influx, calcium uptake assay

| SMILES | IC50 (hP2X3; [1]) | IC50 (hP2X2/3H; [2]) | IC50 (hP2X3; [3]) | IC50 (hP2X2/3H; [3]) |
| --- | --- | --- | --- | --- |
| Cc1ccc(-c2cc(C(=O)N[C@H](C)c3cnc(C)nc3)cc(C(O)C(F)(F)F)c2)c(C#N)c1 (stereo partly drawn) [Compound 353] | < 100 nM | < 100 nM |  |  |
| Cc1ccc(-c2cc(C(=O)N[C@H](C)c3cnc(C)nc3)cc(C(O)c3cncn3C)c2)cc1 (stereo partly drawn) [Compound 354] | < 100 nM | < 100 nM |  |  |
| Cc1ccc(-c2cc(OC3CNCC3O)cc(C(=O)N[C@H](C)c3cnc(C)nc3)c2)nc1 (stereo partly drawn) [Compound 355] | < 100 nM | > 1000 nM |  |  |
| Cc1ccc(-c2cc(C(=O)N[C@H](C)c3cnc(C)nc3)cc(C(O)CO)c2)nc1 (stereo partly drawn) [Compound 356] | < 100 nM | 100 to 500 nM |  |  |
| Cc1ccc(-c2cc(OC3CCOC3)cc(C(=O)N[C@H](C)c3cnc(C)nc3)c2)nc1 (stereo partly drawn) [Compound 357] | < 100 nM | 100 to 500 nM |  |  |
| Cc1ccc(-c2cc(OC3CCOC3)cc(C(=O)N[C@H](C)c3cnc(C)nc3)c2)c(C#N)c1 (stereo partly drawn) [Compound 358] | < 100 nM | < 100 nM |  |  |
| Cc1ccc(-c2cc(OC3CCOC3)cc(C(=O)N[C@H](C)c3cnc(C)nc3)c2)cc1 (stereo partly drawn) [Compound 359] | < 100 nM | < 100 nM |  |  |
| Cc1ccc(-c2cc(C(=O)N[C@H](C)c3cnc(C)nc3)cc(C(O)CO)c2)c(C#N)c1 (stereo partly drawn) [Compound 360] | < 100 nM | 100 to 500 nM |  |  |
| Cc1ccc(-c2cc(C(=O)N[C@H](C)c3cnc(C)nc3)cc(C(O)CO)c2)cc1 (stereo partly drawn) [Compound 361] | < 100 nM | 100 to 500 nM |  |  |
| Cc1ccc(-c2cc(OC3COCC3O)cc(C(=O)N[C@H](C)c3cnc(C)nc3)c2)cc1 (stereo partly drawn) [Compound 362] | < 100 nM | < 100 nM |  |  |
| Cc1ccc(-c2cc(OC3COCC3O)cc(C(=O)N[C@H](C)c3cnc(C)nc3)c2)c(C#N)c1 (stereo partly drawn) [Compound 363] | < 100 nM | < 100 nM |  |  |
| Cc1ccc(-c2cc(OC3COCC3O)cc(C(=O)N[C@H](C)c3cnc(C)nc3)c2)nc1 (stereo partly drawn) [Compound 364] | < 100 nM | 100 to 500 nM |  |  |
| Cc1ccc(-c2cc(C(=O)NCc3ccc(C)nc3)cc(C(O)CN3CCOCC3)c2)cc1 (stereo not drawn) [Compound 365, 5-(1-Hydroxy-2-morpholinoethyl)-4′-methyl-N-((6-methylpyridin-3-yl)methyl)biphenyl-3-carboxamide] | < 100 nM | < 100 nM |  |  |
| Cc1ccc(-c2cc(C(=O)NCc3ccc(C)nc3)cc(C(O)CN3CCN(C)CC3)c2)cc1 (stereo not drawn) [Compound 366] | < 100 nM | 501 to 1000 nM |  |  |
| Cc1ccc(-c2cc(C(=O)NCc3ccc(C)nc3)cc(C(O)CN(C)C)c2)cc1 (stereo not drawn) [Compound 367] | < 100 nM | > 1000 nM |  |  |
| Cc1ccc(-c2cc(C(=O)NCc3ccc(C)nc3)cc(C(O)CN(C)CCO)c2)cc1 (stereo not drawn) [Compound 368] | < 100 nM | 501 to 1000 nM |  |  |
| Cc1ncc([C@@H](C)NC(=O)c2cc(-c3ccccc3)cc(S(C)(=O)=O)c2)cn1 [Compound 370] | < 100 nM | 501 to 1000 nM |  |  |
| Cc1ccc(-c2cc(C(=O)NC(C)c3ccc(Cl)c(S(C)(=O)=O)c3)cc(S(C)(=O)=O)c2)nc1 (stereo not drawn) [Compound 371] | < 100 nM | 100 to 500 nM |  |  |
| Cc1ccc(-c2cc(Oc3ncc(CO)s3)cc(C(=O)N[C@H](C)c3ccc(C)nc3)c2)nc1 [Compound 372] | < 100 nM | < 100 nM |  |  |
| Cc1ccc(-c2cc(Oc3nc(C)cs3)cc(C(=O)N[C@H](C)c3ccc(C)nc3)c2)c(C#N)c1 [Compound 373] | < 100 nM | < 100 nM |  |  |
| Cc1ccc(-c2cc(Oc3nc(C)cs3)cc(C(=O)N[C@H](C)c3ccc(C)nc3)c2)nc1 [Compound 374] | < 100 nM | < 100 nM |  |  |

| SMILES | IC50 (hP2X3; [1]) | IC50 (hP2X2/3H; [2]) | IC50 (hP2X3; [3]) | IC50 (hP2X2/3H; [3]) |
| --- | --- | --- | --- | --- |
| Cc1ccc(-c2cc(Oc3nc(-c4ccccc4)cs3)cc(C(=O)N[C@H](C)c3ccc(C)nc3)c2)nc1 [Compound 375] | 100 to 500 nM | 100 to 500 nM |  |  |
| Cc1ccc(-c2cc(Oc3nc4ccccc4s3)cc(C(=O)N[C@H](C)c3ccc(C)nc3)c2)nc1 [Compound 376] | < 100 nM | < 100 nM |  |  |
| Cc1ccc(-c2cc(OC(C)CO)cc(C(=O)N[C@H](C)c3ccc(C)nc3)c2)c(C#N)c1 (stereo partly drawn) [Compound 377] | < 100 nM | < 100 nM |  |  |
| COCC(CO)Oc1cc(C(=O)N[C@H](C)c2ccc(C)nc2)cc(-c2ccc(C)cc2C#N)c1 (stereo partly drawn) [Compound 378] | < 100 nM | < 100 nM |  |  |
| CCC(O)c1cc(C(=O)N[C@H](C)c2ccc(C)nc2)cc(-c2ccc(C)cc2)c1 (stereo partly drawn) [Compound 379] | < 100 nM | < 100 nM |  |  |
| COCC(OC)c1cc(C(=O)N[C@H](C)c2ccc(C)nc2)cc(-c2ccc(C)cc2)c1 (stereo partly drawn) [Compound 380] | < 100 nM | < 100 nM |  |  |
| Cc1ccc(-c2cc(Oc3nc(C)cs3)cc(C(=O)N[C@H](C)c3ccc(C)nc3)c2)cc1 [Compound 381] | < 100 nM | < 100 nM |  |  |
| Cc1ccc(-c2cc(Oc3nc(Cl)cs3)cc(C(=O)N[C@H](C)c3ccc(C)nc3)c2)nc1 [Compound 384] | < 100 nM | < 100 nM |  |  |
| Cc1ccc(-c2cc(C(=O)NCc3ccc(Cl)cc3Cl)cc(S(C)(=O)=O)c2)nc1 [Compound 385] | 100 to 500 nM | 100 to 500 nM |  |  |
| Cc1ccc(-c2cc(C(=O)NC(C)c3ccc(Cl)cc3Cl)cc(S(C)(=O)=O)c2)nc1 (stereo not drawn) [Compound 387] | 100 to 500 nM | > 1000 nM |  |  |
| Cc1ccc(-c2cc(C(=O)NCc3ccc(C)nc3)cc(C(O)CN3CC(O)C3)c2)cc1 (stereo not drawn) [Compound 388] | < 100 nM | 100 to 500 nM |  |  |
| COC1CCN(CC(O)c2cc(C(=O)NCc3ccc(C)nc3)cc(-c3ccc(C)cc3)c2)CC1 (stereo not drawn) [Compound 389] | < 100 nM | 100 to 500 nM |  |  |
| Cc1ccc(-c2cc(C(=O)NCc3ccc(C)nc3)cc(C(O)CN3CCOCC3CO)c2)cc1 (stereo not drawn) [Compound 390] | < 100 nM | < 100 nM |  |  |
| Cc1ccc(-c2cc(C(=O)NCc3ccc(C)nc3)cc(C(O)CN3CC(C)OC(C)C3)c2)cc1 (stereo not drawn) [Compound 391] | < 100 nM | < 100 nM |  |  |
| Cc1ccc(-c2cc(Oc3nc4ccccc4s3)cc(C(=O)N[C@H](C)c3ccc(C)nc3)c2)c(C#N)c1 [Compound 392] | 100 to 500 nM | 100 to 500 nM |  |  |
| Cc1ccc(-c2cc(Oc3nc4c(s3)CCCC4)cc(C(=O)N[C@H](C)c3ccc(C)nc3)c2)cc1 [Compound 393] | 100 to 500 nM | 100 to 500 nM |  |  |
| Cc1ccc(-c2cc(Oc3nc(Cl)cs3)cc(C(=O)N[C@H](C)c3ccc(C)nc3)c2)c(C#N)c1 [Compound 395] | < 100 nM | < 100 nM |  |  |
| CCC(O)c1cc(C(=O)N[C@H](C)c2cnc(C)nc2)cc(-c2ccc(C)cc2C#N)c1 (stereo partly drawn) [Compound 396] | < 100 nM | < 100 nM |  |  |
| Cc1ccc(-c2cc(C(=O)N[C@H](C)c3cnc(C)nc3)cc(C(O)C(C)C)c2)cc1 (stereo partly drawn) [Compound 397] | < 100 nM | < 100 nM |  |  |
| Cc1ccc(-c2cc(C(=O)N[C@H](C)c3cnc(C)nc3)cc(C(C)(C)O)c2)cc1 [Compound 398] |  |  | < 100 nM | < 100 nM |
| Cc1ccc(-c2cc(C(=O)NCc3ccc(C)nc3)cc(C(O)CN3CC4CN(C)CC4C3)c2)cc1 (stereo not drawn) [Compound 399] |  |  | 100 to 500 nM | 501 to 1000 nM |
